Patent US8546579B2, “Bicycloheteroaryl compounds as P2X7 modulators and uses thereof” (Evotec (US) Inc., priority 2006, dated 2013)

Target: T1, P2X7 receptor (Homo sapiens, UniProt Q99572)
T1 construct: host or cells: THP-1 cells differentiated with LPS and IFN-γ
T1 sequence (Q99572 1-595): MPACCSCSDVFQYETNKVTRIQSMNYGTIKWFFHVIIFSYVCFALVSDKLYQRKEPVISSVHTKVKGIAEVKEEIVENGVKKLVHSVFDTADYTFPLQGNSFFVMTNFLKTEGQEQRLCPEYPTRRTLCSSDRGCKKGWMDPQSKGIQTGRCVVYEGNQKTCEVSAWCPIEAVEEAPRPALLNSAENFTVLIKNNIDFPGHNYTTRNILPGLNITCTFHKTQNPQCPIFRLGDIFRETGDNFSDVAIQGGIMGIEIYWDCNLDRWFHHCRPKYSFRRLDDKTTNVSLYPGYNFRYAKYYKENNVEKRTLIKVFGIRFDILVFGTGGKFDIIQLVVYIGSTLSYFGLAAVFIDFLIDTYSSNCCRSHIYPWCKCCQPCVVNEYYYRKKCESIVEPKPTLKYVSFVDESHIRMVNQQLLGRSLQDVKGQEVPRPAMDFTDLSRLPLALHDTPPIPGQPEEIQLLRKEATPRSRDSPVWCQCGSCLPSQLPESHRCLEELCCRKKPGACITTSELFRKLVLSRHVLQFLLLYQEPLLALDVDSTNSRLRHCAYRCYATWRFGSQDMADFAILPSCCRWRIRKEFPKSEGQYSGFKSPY
Assay: IL-1β release assay in differentiated THP-1 cells stimulated with BzATP (Example 9)
Type: cell-based
Conditions: differentiated THP-1 cells, BzATP 250 uM; for inhibition at 0.3 µM: 0.3 μM compound, '+' class symbols, read-out: IL-1β % Inhib. @ 0.3 μM; for inhibition at 0.1 µM: 0.1 μM compound, '*' class symbols, read-out: IL-1β % Inhib. (asterisk classes, 0.1 μM)
Description: THP-1 cells (ATCC Cat # 285-IF-100) are plated in 96 well plates at a concentration of 200,000 cells per well and allowed to differentiate in RPMI-1640 media (ATCC Cat # 30-2001) containing 10% FBS, 100 IU/mL penicillin, 100 ug/mL streptomycin, 100 ng/mL LPS and 100 ng/mL IFN-γ for 16 hours. Following differentiation, the cells are treated for an additional 2 hours in RPMI-1640 media containing 100 IU/mL penicillin, 100 ug/mL streptomycin and fresh LPS at 100 ng/mL. The cells are then pretreated for 30 minutes with the compound of interest at the appropriate concentration in RPMI media containing 100 IU/mL penicillin, 100 ug/mL streptomycin. Following the pretreatment 2′,3′-O-(4-benzoylbenzoyl)-adenosine 5′-triphosphate (Sigma Aldrich Cat # B6396) is added to a final concentration of 250 uM and the cells are incubated for an additional 45 minutes. 30 uL of cell supernatant is then collected and IL-1β levels determined via ELISA (R&D systems Cat. # HSLB50) according to manufacturer's recommendations using the Tecan Safire plate reader. Background adjusted IL-1β levels of drug treated and non-treated cells are used to calculate the percent inhibition.
The compounds set forth in Table 1 were tested for activity in a cellular model as described herein. Specifically, cells were pretreated with differing amounts of the compound under test and released IL-1β determined as in Example 9, above. Measurements were made and IC50 values, presented in Table 2, below, were determined by fitting the data to a four parameter logistic equation using GraphPad Prism software (GraphPad Software, Inc). The equation may be expressed by the following formula: Y=Bottom+(Top−Bottom)/(1+10^((Log EC50−X)*HillSlope)) Where X is the logarithm of concentration, Y is the response and Y starts at Bottom and goes to Top with a sigmoid shape.

SMILES	inhibition at 0.3 µM [%]	inhibition at 0.1 µM [%]
O=C(CC1C[C@@H]2CC[C@H]1C2)Nc1cccc2c(=O)n(CC3CCOCC3)ccc12 (stereo partly shown) [Compound 1115]	26 to 50	
O=C(Nc1cccc2c(=O)n(CC3CCOCC3)ccc12)[C@]12C[C@@H]3CC1C[C@@H](C3)C2 [Compound 1116]	0 to 25	
O=C(Nc1cccc2c(=O)n(CC3CCOCC3)ccc12)c1cccc2c1OCCO2 [Compound 1117]	0 to 25	
O=C(Nc1cccc2c(=O)n(CC3CCOCC3)ccc12)c1ccc2c(c1)OCCCO2 [Compound 1118]	0 to 25	
O=C(Cc1csc2ccccc12)Nc1cccc2c(=O)n(CC3CCOCC3)ccc12 [Compound 1119]	0 to 25	
Cc1c(Cl)cccc1C(=O)Nc1cccc2c(=O)n(CC3CCOCC3)ccc12 [Compound 1120]	0 to 25	
Cc1cc(C)cc(CC(=O)Nc2cccc3c(=O)n(CC4CCOCC4)ccc23)c1 [Compound 1121]	0 to 25	
O=C(Nc1cccc2c(=O)n(CC3CCOCC3)ccc12)C1C[C@@H]2CC[C@H]1C2 (stereo partly shown) [Compound 1122]	0 to 25	
COc1ccc(CC(=O)Nc2cccc3c(=O)n(CC4CCOCC4)ccc23)c(OC)c1 [Compound 1123]	0 to 25	
Cc1cc(C(=O)Nc2cccc3c(=O)n(CC4CCOCC4)ccc23)ccc1F [Compound 1124]	0 to 25	
O=C(CCc1ccc(Cl)cc1)Nc1cccc2c(=O)n(CC3CCOCC3)ccc12 [Compound 1125]	0 to 25	
CCOc1ccccc1CC(=O)Nc1cccc2c(=O)n(CC3CCOCC3)ccc12 [Compound 1126]	0 to 25	
COc1ccc(CC(=O)Nc2cccc3c(=O)n(CC4CCOCC4)ccc23)cc1C [Compound 1127]	0 to 25	
Cc1ccc(Cl)c(C(=O)Nc2cccc3c(=O)n(CC4CCOCC4)ccc23)c1 [Compound 1128]	0 to 25	
Cc1ccc(Cl)cc1C(=O)Nc1cccc2c(=O)n(CC3CCOCC3)ccc12 [Compound 1129]	0 to 25	
Cc1cccc(CCC(=O)Nc2cccc3c(=O)n(CC4CCOCC4)ccc23)c1 [Compound 1130]	0 to 25	
O=C(Nc1cccc2c(=O)n(CC3CCOCC3)ccc12)c1cc2cc(Cl)ccc2o1 [Compound 1131]	0 to 25	
Cc1cccc(C(=O)Nc2cccc3c(=O)n(CC4CCOCC4)ccc23)c1Cl [Compound 1132]	0 to 25	
COc1ccc(C(=O)Nc2cccc3c(=O)n(CC4CCOCC4)ccc23)cc1C [Compound 1133]	0 to 25	
Cc1ccc(CCC(=O)Nc2cccc3c(=O)n(CC4CCOCC4)ccc23)c(C)c1 [Compound 1134]	0 to 25	
O=C(CCc1cccc(Cl)c1)Nc1cccc2c(=O)n(CC3CCOCC3)ccc12 [Compound 1135]	0 to 25	

SMILES	inhibition at 0.3 µM [%]	inhibition at 0.1 µM [%]
CC(C)Cc1ccc(C(=O)Nc2cccc3c(=O)n(CC4CCOCC4)ccc23)cc1 [Compound 1136]	0 to 25	
CN(C)CCn1ccc2c(NC(=O)c3ccccc3Cl)cccc2c1=O [Compound 1137]	0 to 25	
CN(C)CCn1ccc2c(NC(=O)c3ccc(Cl)cc3Cl)cccc2c1=O [Compound 1138]	0 to 25	
CN(C)CCn1ccc2c(NC(=O)c3cc(Cl)ccc3Cl)cccc2c1=O [Compound 1139]	0 to 25	
Cc1cccc(C(=O)Nc2cccc3c(=O)n(CCN(C)C)ccc23)c1C [Compound 1140]	0 to 25	
Cc1ccc(C(=O)Nc2cccc3c(=O)n(CCN(C)C)ccc23)c(C)c1 [Compound 1141]	0 to 25	
Cc1ccc(C)c(C(=O)Nc2cccc3c(=O)n(CCN(C)C)ccc23)c1 [Compound 1142]	0 to 25	
CN(C)CCn1ccc2c(NC(=O)c3cc(Cl)cc(Cl)c3)cccc2c1=O [Compound 1143]	0 to 25	
Cc1cccc(C(=O)Nc2cccc3c(=O)n(CCN(C)C)ccc23)c1 [Compound 1145]	0 to 25	
CCOc1ccc(C(=O)Nc2cccc3c(=O)n(CCN(C)C)ccc23)cc1 [Compound 1146]		0 to 25
CN(C)CCn1ccc2c(NC(=O)c3ccc(C(C)(C)C)cc3)cccc2c1=O [Compound 1147]	0 to 25	
CC(C(=O)Nc1cccc2c(=O)n(CCN(C)C)ccc12)c1ccccc1 (stereo not shown) [Compound 1148]	0 to 25	
COc1ccccc1CCC(=O)Nc1cccc2c(=O)n(CCN(C)C)ccc12 [Compound 1149]		0 to 25
COc1ccc(CCC(=O)Nc2cccc3c(=O)n(CCN(C)C)ccc23)cc1 [Compound 1150]	0 to 25	
CN(C)CCn1ccc2c(NC(=O)c3cccc4ccccc34)cccc2c1=O [Compound 1151]	0 to 25	
CN(C)CCn1ccc2c(NC(=O)Cc3cccc4ccccc34)cccc2c1=O [Compound 1152]	0 to 25	
CN(C)CCn1ccc2c(NC(=O)c3ccc4ccccc4c3)cccc2c1=O [Compound 1153]	0 to 25	
CN(C)CCn1ccc2c(NC(=O)Cc3ccccc3F)cccc2c1=O [Compound 1154]	0 to 25	
CN(C)CCn1ccc2c(NC(=O)Cc3ccccc3Cl)cccc2c1=O [Compound 1155]	0 to 25	
COc1ccc(OC)c(CC(=O)Nc2cccc3c(=O)n(CCN(C)C)ccc23)c1 [Compound 1156]	0 to 25	
Cc1ccccc1CC(=O)Nc1cccc2c(=O)n(CCN(C)C)ccc12 [Compound 1157]	0 to 25	

SMILES	inhibition at 0.3 µM [%]	inhibition at 0.1 µM [%]
COc1ccc(CC(=O)Nc2cccc3c(=O)n(CCN(C)C)ccc23)cc1OC [Compound 1158]	0 to 25	
Cc1cccc(CC(=O)Nc2cccc3c(=O)n(CCN(C)C)ccc23)c1 [Compound 1159]	0 to 25	
CCOc1ccc(CC(=O)Nc2cccc3c(=O)n(CCN(C)C)ccc23)cc1 [Compound 1160]	0 to 25	
CN(C)CCn1ccc2c(NC(=O)CCCc3ccccc3)cccc2c1=O [Compound 1161]	0 to 25	
CN(C)CCn1ccc2c(NC(=O)c3cc4ccccc4o3)cccc2c1=O [Compound 1162]	0 to 25	
CN(C)CCn1ccc2c(NC(=O)Cc3ccc4c(c3)OCO4)cccc2c1=O [Compound 1163]	0 to 25	
COc1cc(CC(=O)Nc2cccc3c(=O)n(CCN(C)C)ccc23)cc(OC)c1 [Compound 1164]	0 to 25	
COc1c(C)cc(C(=O)Nc2cccc3c(=O)n(CCN(C)C)ccc23)cc1C [Compound 1165]	0 to 25	
Cc1cc(Cl)ccc1C(=O)Nc1cccc2c(=O)n(CCN(C)C)ccc12 [Compound 1166]	0 to 25	
CN(C)CCn1ccc2c(NC(=O)CC3CC4CC[C@H]3C4)cccc2c1=O (stereo partly shown) [Compound 1167]	26 to 50	
CN(C)CCn1ccc2c(NC(=O)[C@@]34C[C@@H]5C[C@@H](C[C@@H]3C5)C4)cccc2c1=O [Compound 1168]	0 to 25	
CN(C)CCn1ccc2c(NC(=O)c3cccc4c3OCCO4)cccc2c1=O [Compound 1169]	0 to 25	
CN(C)CCn1ccc2c(NC(=O)c3ccc4c(c3)OCCCO4)cccc2c1=O [Compound 1170]	0 to 25	
CN(C)CCn1ccc2c(NC(=O)Cc3csc4ccccc34)cccc2c1=O [Compound 1171]	0 to 25	
Cc1c(Cl)cccc1C(=O)Nc1cccc2c(=O)n(CCN(C)C)ccc12 [Compound 1172]	0 to 25	
Cc1cc(C)cc(CC(=O)Nc2cccc3c(=O)n(CCN(C)C)ccc23)c1 [Compound 1173]	0 to 25	
Cc1cc(C(=O)Nc2cccc3c(=O)n(CCN(C)C)ccc23)ccc1F [Compound 1175]	0 to 25	
CN(C)CCn1ccc2c(NC(=O)CCc3ccc(Cl)cc3)cccc2c1=O [Compound 1176]	0 to 25	
CCOc1ccccc1CC(=O)Nc1cccc2c(=O)n(CCN(C)C)ccc12 [Compound 1177]	0 to 25	
